Article PMC10747300, “Identification of Indazole-Based Thiadiazole-Bearing Thiazolidinone Hybrid Derivatives: Theoretical and Computational Approaches to Develop Promising Anti-Alzheimer’s Candidates” (Pharmaceuticals, 2023)
“And” between values parts separate entries of the source, which are not always exact repeats. Equal values may be shown once. Read-outs that look alike come from different tables or passages of the source.

How the values were obtained:
[1] = molecular target: T1, butyrylcholinesterase (BuChE) (Homo sapiens, UniProt P06276); test: biochemical
T1 construct: purchased Sigma 9001-08-5 (this is the CAS number of cholinesterase, not a catalogue number)
Procedure: (§1) A spectrophotometric analysis was conducted by Ellman et al. to determine the inhibition of ChEs (AChE and BuChE). […] An incubation of 15 min was performed at room temperature with 140 L of sodium phosphate buffer (pH 8.0), 20 L of AChE/BuChE solution, and 20 L of the test sample. AChE/BuChE solutions containing DTNB were introduced into the 10 L solution to initiate the reaction. […] A percentage of inhibition was calculated using the ratio of enzyme activity in the presence of the test sample (E), minus enzyme activity without the test sample (S), expressed as E–S/E100. Each substance’s inhibition of substrate hydrolysis by ChE was quantified using its IC50 value (g/mL) or M. Compounds with the same IC50 values are calculated using the same standardized plot.

[2] = molecular target: T2, acetylcholinesterase (AChE) (Homo sapiens, UniProt P22303); test: biochemical
T2 construct: purchased Sigma 9000-81-1 (so in the source); this is the CAS number of acetylcholinesterase, not a catalogue number
Procedure: as §1

[3] = printed without unit in Figure 2 (second value of each pair), read-out: BuChE IC50
[4] = substrate BTCh, DTNB, pH 8.0, 15 min incubation, read-out: BuChE IC50 ± SEM
[5] = substrate ATCh, DTNB, pH 8.0, 15 min incubation, read-out: AChE IC50 ± SEM
[6] = printed without unit in text / Figure 2, read-out: AChE IC50

T2 sequence (P22303 32-614): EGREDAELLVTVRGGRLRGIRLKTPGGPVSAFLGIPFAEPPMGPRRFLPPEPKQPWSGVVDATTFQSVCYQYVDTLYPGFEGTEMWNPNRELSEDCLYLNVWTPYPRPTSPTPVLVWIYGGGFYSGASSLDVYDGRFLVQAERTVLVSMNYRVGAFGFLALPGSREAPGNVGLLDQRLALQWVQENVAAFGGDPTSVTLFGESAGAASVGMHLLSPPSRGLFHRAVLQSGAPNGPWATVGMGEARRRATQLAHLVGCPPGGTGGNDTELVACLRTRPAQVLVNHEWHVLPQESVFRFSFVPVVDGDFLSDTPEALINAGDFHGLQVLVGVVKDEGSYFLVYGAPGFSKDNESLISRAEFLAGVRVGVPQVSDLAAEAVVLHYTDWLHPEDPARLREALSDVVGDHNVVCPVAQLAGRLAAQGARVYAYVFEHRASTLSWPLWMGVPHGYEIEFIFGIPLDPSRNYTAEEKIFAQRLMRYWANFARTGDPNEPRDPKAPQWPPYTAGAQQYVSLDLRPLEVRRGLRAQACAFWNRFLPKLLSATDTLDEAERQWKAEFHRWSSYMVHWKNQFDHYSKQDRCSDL
T1 sequence (P06276 29-602): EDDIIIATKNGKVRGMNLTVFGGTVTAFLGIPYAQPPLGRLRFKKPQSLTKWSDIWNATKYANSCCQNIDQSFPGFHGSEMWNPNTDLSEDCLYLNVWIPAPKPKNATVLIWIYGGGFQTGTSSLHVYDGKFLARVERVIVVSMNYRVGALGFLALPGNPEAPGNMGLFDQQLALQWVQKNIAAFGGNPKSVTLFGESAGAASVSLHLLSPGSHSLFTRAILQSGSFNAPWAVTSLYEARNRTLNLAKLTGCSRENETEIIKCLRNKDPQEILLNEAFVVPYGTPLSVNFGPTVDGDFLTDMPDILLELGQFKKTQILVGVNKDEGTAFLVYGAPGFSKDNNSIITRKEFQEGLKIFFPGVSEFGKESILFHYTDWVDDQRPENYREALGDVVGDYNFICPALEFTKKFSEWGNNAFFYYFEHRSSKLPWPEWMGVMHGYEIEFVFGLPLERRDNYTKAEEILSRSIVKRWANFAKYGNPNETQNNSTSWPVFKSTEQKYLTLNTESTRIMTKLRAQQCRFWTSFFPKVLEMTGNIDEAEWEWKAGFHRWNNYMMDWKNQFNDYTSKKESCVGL

## O=C1N/C(=N/c2nnc(-c3ccc4[nH]ncc4c3)s2)S/C1=C/c1cc(Cl)c(Cl)c([N+](=O)[O-])c1 [Compound 1, (Z)-2-((5-(1H-Indazol-5-yl)-1,3,4-Thiadiazol-2-yl)Imino)-5-((E)-3,4-Dichloro-5-Nitrobenzylidene)Thiazolidin-4-One]
[1]; [3]
  IC50: 1190 ± 420 nM
[1]; [4]
  IC50: 890 nM and 1190 nM
[2]; [5]
  IC50: 860 nM and 1100 nM

## O=C1N/C(=N/c2nnc(-c3ccc4[nH]ncc4c3)s2)S/C1=C/c1ccccc1Cl [Compound 2, (Z)-2-((5-(1H-Indazol-5-yl)-1,3,4-Thiadiazol-2-yl)Imino)-5-((E)-2-Chlorobenzylidene)Thiazolidin-4-One]
[1]; [4]
  IC50: 3360 ± 280 nM
[2]; [6]
  IC50: 3110 ± 590 nM
[2]; [5]
  IC50: 3110 ± 590 nM

## Cc1ccc(/C=C2/S/C(=N\c3nnc(-c4ccc5[nH]ncc5c4)s3)NC2=O)c(C)c1 [Compound 3, (Z)-2-((5-(1H-Indazol-5-yl)-1,3,4-Thiadiazol-2-yl)Imino)-5-((E)-2,4-Dimethylbenzylidene)Thiazolidin-4-One]
[1]; [4]
  IC50: 8800 ± 130 nM
[2]; [6]
  IC50: 8260 ± 400 nM
[2]; [5]
  IC50: 8260 ± 400 nM

## Cc1cc(C)cc(/C=C2/S/C(=N\c3nnc(-c4ccc5[nH]ncc5c4)s3)NC2=O)c1 [Compound 4, (Z)-2-((5-(1H-Indazol-5-yl)-1,3,4-Thiadiazol-2-yl)Imino)-5-((E)-3,5-Dimethylbenzylidene)Thiazolidin-4-One]
[1]; [4]
  IC50: 8840 ± 980 nM
[2]; [6]
  IC50: 8600 ± 1050 nM
[2]; [5]
  IC50: 8600 ± 1050 nM

## COc1ccc(/C=C2/S/C(=N\c3nnc(-c4ccc5[nH]ncc5c4)s3)NC2=O)cc1 [Compound 5, (Z)-2-((5-(1H-Indazol-5-yl)-1,3,4-Thiadiazol-2-yl)Imino)-5-((E)-4-Methoxybenzylidene)Thiazolidin-4-One]
[1]; [4]
  IC50: 10600 ± 740 nM
[2]; [6]
  IC50: 10400 ± 980 nM
[2]; [5]
  IC50: 10400 ± 980 nM

## COc1cccc(/C=C2/S/C(=N\c3nnc(-c4ccc5[nH]ncc5c4)s3)NC2=O)c1 [Compound 6, (Z)-2-((5-(1H-Indazol-5-yl)-1,3,4-Thiadiazol-2-yl)Imino)-5-((E)-3-Methoxybenzylidene)Thiazolidin-4-One]
[1]; [4]
  IC50: 13000 ± 150 nM
[2]; [6]
  IC50: 12700 ± 330 nM
[2]; [5]
  IC50: 12700 ± 330 nM

## O=C1N/C(=N/c2nnc(-c3ccc4[nH]ncc4c3)s2)S/C1=C/c1ccc([N+](=O)[O-])cc1 [Compound 7, (Z)-2-((5-(1H-Indazol-5-yl)-1,3,4-Thiadiazol-2-yl)Imino)-5-((E)-4-Nitrobenzylidene)Thiazolidin-4-One]
[1]; [4]
  IC50: 1570 ± 280 nM
[2]; [5]
  IC50: 1400 ± 310 nM

## O=C1N/C(=N/c2nnc(-c3ccc4[nH]ncc4c3)s2)S/C1=C/c1ccc(Cl)c(Cl)c1 [Compound 8, (Z)-2-((5-(1H-Indazol-5-yl)-1,3,4-Thiadiazol-2-yl)Imino)-5-((E)-3,4-Dichlorobenzylidene)Thiazolidin-4-one]
[1]; [4]
  IC50: 1290 ± 410 nM
[2]; [5]
  IC50: 1220 ± 640 nM

## O=C1N/C(=N/c2nnc(-c3ccc4[nH]ncc4c3)s2)S/C1=C/c1ccc(C(F)(F)F)cc1 [Compound 9, (Z)-2-((5-(1H-Indazol-5-yl)-1,3,4-Thiadiazol-2-yl)Imino)-5-((E)-4-(Trifluoromethyl)Benzylidene)Thiazolidin-4-One]
[1]; [3]
  IC50: 890 ± 120 nM
[1]; [4]
  IC50: 890 ± 120 nM
[2]; [6]
  IC50: 860 ± 300 nM
[2]; [5]
  IC50: 860 ± 300 nM

## O=C1N/C(=N/c2nnc(-c3ccc4[nH]ncc4c3)s2)S/C1=C/c1ccc(Br)cc1 [Compound 10, (Z)-2-((5-(1H-Indazol-5-yl)-1,3,4-Thiadiazol-2-yl)Imino)-5-((E)-4-Bromobenzylidene)Thiazolidin-4-One]
[1]; [4]
  IC50: 25000 ± 440 nM
[2]; [6]
  IC50: 24680 ± 120 nM
[2]; [5]
  IC50: 24680 ± 120 nM

## O=C1N/C(=N/c2nnc(-c3ccc4[nH]ncc4c3)s2)S/C1=C/c1cccc(Br)c1 [Compound 11, (Z)-2-((5-(1H-Indazol-5-yl)-1,3,4-Thiadiazol-2-yl)Imino)-5-((E)-3-Bromobenzylidene)Thiazolidin-4-One]
[1]; [4]
  IC50: 27080 ± 190 nM
[2]; [6]
  IC50: 26700 ± 840 nM
[2]; [5]
  IC50: 26700 ± 840 nM

## Cc1cc(Br)cc(/C=C2/S/C(=N\c3nnc(-c4ccc5[nH]ncc5c4)s3)NC2=O)c1 [Compound 12, (Z)-2-((5-(1H-Indazol-5-yl)-1,3,4-Thiadiazol-2-yl)Imino)-5-((E)-3-Bromo-5-Methylbenzylidene)Thiazolidin-4-One]
[1]; [4]
  IC50: 26200 ± 670 nM
[2]; [6]
  IC50: 25120 ± 180 nM
[2]; [5]
  IC50: 25120 ± 180 nM

## O=C1N/C(=N/c2nnc(-c3ccc4[nH]ncc4c3)s2)S/C1=C/c1cccc2ccccc12 [Compound 13, (2Z,5E)-2-((5-(1H-Indazol-5-yl)-1,3,4-Thiadiazol-2-yl)Imino)-5-(Naphthalen-1-Ylmethylene)Thiazolidin-4-One]
[2]; printed without unit in text / Figure 2
  AChE IC50: no discernable activity

## O=C1N/C(=N/c2nnc(-c3ccc4[nH]ncc4c3)s2)S/C1=C/c1ccc(F)cc1O [Compound 14, (Z)-2-((5-(1H-Indazol-5-yl)-1,3,4-Thiadiazol-2-yl)Imino)-5-((E)-4-Fluoro-2-Hydroxybenzylidene)Thiazolidin-4-One]
[1]; [3]
  IC50: 980 ± 480 nM
[1]; [4]
  IC50: 1190 nM and 980 nM
[2]; [6]
  IC50: 920 ± 100 nM
[2]; [5]
  IC50: 1100 nM and 920 nM

## O=C1N/C(=N/c2nnc(-c3ccc4[nH]ncc4c3)s2)S/C1=C/c1ccccc1F [Compound 15, (Z)-2-((5-(1H-Indazol-5-yl)-1,3,4-Thiadiazol-2-yl)Imino)-5-((E)-2-Fluorobenzylidene)Thiazolidin-4-One]
[1]; [3]
  IC50: 1270 ± 400 nM
[1]; [4]
  IC50: 1270 ± 400 nM
[2]; [6]
  IC50: 1240 ± 360 nM
[2]; [5]
  IC50: 1240 ± 360 nM

## O=C1N/C(=N/c2nnc(-c3ccc4[nH]ncc4c3)s2)S/C1=C/c1cccc(F)c1 [Compound 16, (Z)-2-((5-(1H-Indazol-5-yl)-1,3,4-Thiadiazol-2-yl)Imino)-5-((E)-3-Fluorobenzylidene)Thiazolidin-4-One]
[1]; [3]
  IC50: 1200 ± 470 nM
[1]; [4]
  IC50: 1200 ± 470 nM
[2]; [6]
  IC50: 1200 ± 580 nM
[2]; [5]
  IC50: 1200 ± 580 nM

## O=C1N/C(=N/c2nnc(-c3ccc4[nH]ncc4c3)s2)S/C1=C/c1ccc(Br)c([N+](=O)[O-])c1 [Compound 17, (Z)-2-((5-(1H-Indazol-5-yl)-1,3,4-Thiadiazol-2-yl)Imino)-5-((E)-4-Bromo-3-Nitrobenzylidene)Thiazolidin-4-One]
[1]; [4]
  IC50: 20500 ± 860 nM
[2]; [6]
  IC50: 22300 ± 1000 nM
[2]; [5]
  IC50: 22300 ± 1000 nM
